Twelve compounds from patent US6911549B1, “Method of preparing a taxol derivative” (priority 1992, dated 2005) can be followed below.

Converted amounts (≈) assume the structure as drawn.

One assay relates to L1210 leukemia. The assay is described as follows: L1210 leukemia cell proliferation inhibition (Table 1, procedure of Li et al.). Particulars: drug concentration required to inhibit cell proliferation to 50% of untreated control cells; for IC50: Mus musculus, L1210, read-out: L1210 (IC50 μg/ml). Type of assay: cell-based, mouse. From the text:
The biological activity of the compounds of this invention has been further confirmed using well known procedures against L1210 leukemia and the results set forth in Table I. The results were obtained using standard well known procedure (Li, L. H.; Kuentzel, S. L.; Murch, L. L.; Pschigoga, L. M.; and W. C. Krueger, “Comparative biological and biochemical effects of nogalamycin and its analogs on L1210 leukemia,” Cancer Res. 39:4816-4822 (1979)). The results are expressed as an IC50 which is the drug concentration required to inhibit cell proliferation to 50% of that of untreated control cells. Lower numbers indicated greater activity.

In assay [1] the test system is A2780 (human ovarian carcinoma) cells. Put plainly: Cytotoxicity in A2780 (human ovarian carcinoma) cells in culture (IC90). Type of assay: cell-based. The text has this:
(§1) The biological activity of the 7-deoxy-7-halotaxol compounds (Formula III) of the invention has been confirmed using well known procedures.

Another assay has as its system tubulin. The assay is described as follows: In vitro tubulin polymerization assay after Gaskin et al. Type of assay: biochemical. Particulars: in vitro at 20° C.; for induction of tubulin polymerization in vitro: compared with taxol.
Text: (§2) The biological activity of the 7-deoxy-7β,8β-methanotaxol compounds (Formula II) of the invention has been confirmed using well known procedures.
as §1

The test system of assay [2] is L1210 mouse leukemia carcinoma cells. Put plainly: Cytotoxicity in L1210 mouse leukemia carcinoma cells in culture (IC90). Type of assay: cell-based.
Text: as §2

With `CC(=O)OC1C(=O)C2(C)C(F)CC3OCC3(OC(C)=O)C2C(OC(=O)c2ccccc2)C2(O)CC(OC(=O)C(O)C(NC(=O)OC(C)(C)C)c3ccccc3)C(C)=C1C2(C)C` (stereo not shown) [Compound 20, N-Debenzoyl-N-(t-butyl)oxycarbonyl-7-deoxy-7-fluorotaxol], the “L1210 (IC50 μg/ml)” value with L1210 leukemia came to 0.0038 µg/mL.
As for `CC(=O)OC1C(=O)C2(C)C(F)CC3OCC3(OC(C)=O)C2C(OC(=O)c2ccccc2)C2(O)CC(OC(=O)C(OC(=O)OCC(Cl)(Cl)Cl)C(NC(=O)c3ccccc3)c3ccccc3)C(C)=C1C2(C)C` (stereo not shown) [Compound 13AA, 2′-{[(2,2,2-Trichloroethyl)-oxy]carbonyl}-7-deoxy-7-fluorotaxol], the “L1210 (IC50 μg/ml)” value in the assay with L1210 leukemia was determined as 0.054 µg/mL.
As for `CC(=O)O[C@H]1C(=O)[C@]2(C)C(F)C[C@H]3OC[C@@]3(OC(C)=O)[C@H]2[C@H](OC(=O)c2ccccc2)[C@]2(O)CC(OC(=O)[C@H](O)[C@@H](NC(=O)c3ccccc3)c3ccccc3)C(C)=C1C2(C)C` (stereo partly shown) [Compound IIIb, 7-Deoxy-7-fluorotaxol], the IC90 in assay [1] (Homo sapiens, A2780, read-out: IC90 (90% growth inhibitory concentration)) came to 0.016 mg/L (≈ 0.0187 µM). The IC50 with L1210 leukemia was found to be 0.01 µg/mL (≈ 0.0117 µM). Further, in the assay on tubulin, the “potency relative to taxol in tubulin polymerization assay” value is given as “approximately half as potent as taxol” and the “induction of tubulin polymerization in vitro” value was “able to induce tubulin polymerization in vitro at 20 °C in a manner very similar to taxol”.
With `CC(=O)OC1C(=O)C23CC2CC2OCC2(OC(C)=O)C3C(OC(=O)c2ccccc2)C2(O)CC(OC(=O)C(OC(=O)OCC(Cl)(Cl)Cl)C(NC(=O)c3ccccc3)c3ccccc3)C(C)=C1C2(C)C` (stereo not drawn) [Compound 14AA, 2′-{[(2,2,2-Trichloroethyl)oxy]carbonyl}-7-deoxy-7β,8β-methanotaxol], the “L1210 (IC50 μg/ml)” value in the assay with L1210 leukemia is above 0.1 µg/mL.
As for `CC(=O)O[C@H]1C(=O)[C@@]2(C)C(F)C[C@H]3OC[C@@]3(OC(C)=O)[C@H]2[C@H](OC(=O)c2ccccc2)[C@]2(O)C[C@H](OC(=O)[C@H](O)[C@@H](NC(=O)NC(C)(C)C)c3ccccc3)C(C)=C1C2(C)C` (stereo partly shown) [Compound 28, N-debenzoyl-N-(t-butyl)aminocarbonyl-7-deoxy-7-fluoro-taxol], in the assay with L1210 leukemia, the “L1210 (IC50 μg/ml)” value was 0.0055 µg/mL.
For the compound `CC(=O)O[C@H]1C(=O)[C@]23C[C@H]2C[C@H]2OC[C@@]2(OC(C)=O)[C@H]3[C@H](OC(=O)c2ccccc2)[C@]2(O)C[C@H](OC(=O)[C@H](O)[C@@H](NC(=O)OC(C)(C)C)c3ccccc3)C(C)=C1C2(C)C` [Compound 23, N-Debenzoyl-N-(t-butyl)oxycarbonyl-7-deoxy-7β,8β-methanotaxol], the “L1210 (IC50 μg/ml)” value in the assay with L1210 leukemia was found to be 0.0046 µg/mL.
For `CC(=O)O[C@@]12CO[C@@H]1C[C@H](O)[C@@]1(C)C(=O)[C@H](O)C3=C(C)[C@@H](OC(=O)[C@H](O)[C@@H](NC(=O)OC(C)(C)C)c4ccccc4)C[C@@](O)([C@@H](OC(=O)c4ccccc4)[C@H]21)C3(C)C` [Taxotere, reference compound], the IC50 with L1210 leukemia was determined as 0.004 µg/mL (≈ 0.00495 µM).
For `CC(=O)O[C@H]1C(=O)[C@@]23CC2C[C@H]2OC[C@@]2(OC(C)=O)[C@H]3[C@H](OC(=O)c2ccccc2)[C@]2(O)C[C@H](OC(=O)[C@H](O)[C@@H](NC(=O)NC(C)(C)C)c3ccccc3)C(C)=C1C2(C)C` (stereo partly drawn) [Compound 29, N-debenzoyl-N-(t-butyl)aminocarbonyl-7-deoxy-7β,8β-methano-taxol], in the assay with L1210 leukemia, the “L1210 (IC50 μg/ml)” value worked out at 0.006 µg/mL.
Consider `CC(=O)O[C@H]1C(=O)C23C[C@@H]2CC2OC[C@@]2(OC(C)=O)C3[C@H](OC(=O)c2ccccc2)[C@]2(O)CC(OC(=O)C(OC(=O)OCC(Cl)(Cl)Cl)[C@@H](NC(=O)OC(C)(C)C)c3ccccc3)C(C)=C1C2(C)C` (stereo partly drawn) [Compound 14DA, N-Debenzoyl-N-(t-butyl)oxycarbonyl-2′-{[(2,2,2-trichloroethyl)oxy]carbonyl}-7-deoxy-7β,8β-methanotaxol], for which the IC50 in the assay with L1210 leukemia stood at 0.012 µg/mL (≈ 0.0119 µM).
Turning to `CC(=O)O[C@H]1C(=O)[C@@]2(C)[C@H]([C@H](OC(=O)c3ccccc3)[C@]3(O)C[C@H](OC(=O)[C@H](O)[C@@H](NC(=O)c4ccccc4)c4ccccc4)C(C)=C1C3(C)C)[C@]1(OC(C)=O)CO[C@@H]1C[C@@H]2O` [Taxol], the “IC90 (90% growth inhibitory concentration)” value stood at 0.06 micrograms/ml in assay [2] and 0.007 micrograms/ml in assay [1] (A2780 (human ovarian carcinoma) cells in culture). Further, the “L1210 (IC50 μg/ml)” value in the assay on L1210 leukemia was 0.015 µg/mL.
Regarding `CC(=O)OC1C(=O)C23CC2CC2OCC2(OC(C)=O)C3C(OC(=O)c2ccccc2)C2(O)CC(OC(=O)C(O)C(NC(=O)c3ccccc3)c3ccccc3)C(C)=C1C2(C)C` (stereo not drawn) [Compound IIb, 7-Deoxy-7β,8β-methanotaxol], the “IC90 (90% growth inhibitory concentration)” value in assay [2] worked out at 0.025 micrograms/ml. In addition, the “L1210 (IC50 μg/ml)” value in the assay with L1210 leukemia turned out to be 0.012 µg/mL. Besides, the “induction of tubulin polymerization in vitro” value in the assay on tubulin was “able to induce tubulin polymerization in vitro at 20 °C in a manner very similar to taxol”.
For the compound `CC(=O)O[C@H]1C(=O)[C@]2(C)C(F)C[C@H]3OC[C@@]3(OC(C)=O)[C@H]2[C@H](OC(=O)c2ccccc2)[C@]2(O)C[C@H](OC(=O)[C@H](OC(=O)OCC(Cl)(Cl)Cl)[C@@H](NC(=O)OC(C)(C)C)c3ccccc3)C(C)=C1C2(C)C` (stereo partly shown) [Compound 13DA, N-Debenzoyl-N-(t-butyl)oxycarbonyl-2′-{[(2,2,2-trichloroethyl)oxy]carbonyl}-7-deoxy-7-fluorotaxol], the “L1210 (IC50 μg/ml)” value in the assay with L1210 leukemia worked out at 0.015 µg/mL.
